The record followed here is patent publication US20160324884A1, “TREATMENT OF DIABETES WITH PENTACYCLIC TRITERPENOID SAPONIN COMPOUNDS FROM SZECHUAN MELANDIUM ROOT” (priority 2013, published 2016).

Entries after “also recorded” stand apart in the source; their conditions may differ.

Experiment [1] has as its system KK^Ay mice. The experiment can be described thus: Glycemia in KK^Ay mice during treatment and after withdrawal (Example 3). Type of experiment: in vivo. From the text: 60 male KK^Ay mice (12 weeks of age, License NO. SCXK (BJ) 2009-0015, Beijing Huafukang Biology Technology Co. Ltd.) and 10 normal male C57BL/6 mice (12 weeks of age, License NO. SCXK (BJ) 2009-0015, Beijing Huafukang Biology Technology Co. Ltd.) were adaptively bred for one week, and then used in the following experiment.
(§1) 60 KK^Ay mice were adaptively bred for 1 week, and then randomly assigned into 6 groups: Model group, Compound (1) group, Compound (2) group, Compound (3) group, Compound (4) group, and metformin group, 10 mice per group. 10 normal C57BL/6 mice were used for the control group. KK^Ay mice were in a high-fat diet, and the control normal mice were in a normal control diet. The control and model groups were hypodermically injected with sterile water, the 6 medicated groups mice were subcutaneously injected with […] Wacao saponins, (Compounds (1), (2), (3) and (4)) respectively, and the positive group was administered metformin by gavage. All mice were administrated at 9 am for 2 weeks and the administration volume is 10 ml/kg BW.
(§2) Compound (1), (2), (3) and (4) were respectively dissolved into sterile water, and sterilized with filtration for Sc. to the medication groups. The metformin was dissolved into sterile water for lg. to the positive control group. Control and model groups animals were injected with sterile water (10 ml/kg BW), Sc. All the animals were treated daily at 9 am for 2 weeks (14 days).
(§3) Blood detection: Blood glucose was measured weekly. Overnight fasting glycemia level was measured with One Touch ULTRA Glucometer for the tail blood test. At the end of the experiment, blood serum was collected for measuring levels of fasting blood glucose and insulin, and the insulin sensitivity index (ISI) was calculated. At the same time, hepatic tissues and skeletal muscles of mice were taken out to determine levels of hepatic and muscle glycogen by detection kits.
Termination of the experiment After administrating mice for 2 weeks (14 days), the experiment was terminated.
This experiment is to observe the anti-hyperglycemia effects of Wacao saponins on KK^Ay mice during and after the period of drug treatment, respectively.

In experiment [2] the test system is T2DM rats. Briefly: Glycosylated serum protein (GSP) and liver and muscle glycogen in T2DM rats (Example 5). It is filed as in vivo, SD rats. The following applies: 4.0 mg/kg Sc vs glucobay 20 mg/kg lg. From the text:
(§4) 50 SD rats were adaptively bred for 1 week, and then randomly assigned into 5 groups: The control group, model group, Compound (1) group, Compound (2) group and glucobay group (the positive group), 10 rats per group. All the animals were in a standard laboratory diet. Control and model group animals were hypodermically injected with sterile water, test compound treatment groups were subcutaneously injected with the Compounds (1) and (2), and the positive group was administrated glucobay solution by gavage. All the animals were administrated at 9 am for 2 weeks, and the dose volume is 10 ml/kg BW.
(§5) The Compounds (1) and (2) were dissolved into sterile water, and sterilized with filtration, Sc. Glucobay was dissolved into sterile water, lg. Animals in the control and model groups were injected with sterile water (10 ml/kg BW), Sc. All the animals were treated at 9 am for 2 weeks (14 days).
All rats except the control group were administrated intragastrically with the high-fat emulsion (10 ml/kg) and weighed the body weight weekly. After weeks of administration, rats were intraperitoneally injected with streptozotocin (STZ, dissolved in citric acid-citrate sodium solution, pH 4.2, freshly prepared and used instantly, and store away from light) (30mg/kg). 4 days later, blood glucose level in rats was measured by tail blood test. […]

A further experiment concerns normal ICR mice. Briefly: Glycemia in normal ICR mice (Example 4). Type of experiment: in vivo. The following applies: 2.0 mg/kg Sc, vs control group. From the text:
40 male ICR mice (20-22g, License NO. SCXK (BJ) 2011-0004, Beijing SPF Experimental Animal Technology Co. Ltd.) were adaptively bred for one week, and then used in the following experiment.
Animals were housed individually in wood-chip-bedded plastic cages and fed the standard laboratory chow. All the animals had ad libitum access to food and water.
40 ICR mice were adaptively bred for 1 week, and then randomly assigned into 4 groups: Model, Compound (1), Compound (2) and metformin group, 10 mice per group. All the animals were fed with normal food. Mice in the control group were hypodermically injected with sterile water. The treated groups were subcutaneously injected with Compounds (1) and (2), respectively. And the positive group was administrated metformin by gavage. All the animals were administrated at 9 am for 2 weeks, and the dose volume is 10 ml/kg BW.
Compound (1) and (2) were respectively dissolved into sterile water, and sterilized with filtration for Sc. The metformin was dissolved into sterile water for lg. to the positive control group. Mice in the control group were injected with sterile water (10 ml/kg BW), Sc. All the animals were treated at 9 am for 2 weeks (14 days).
Blood detection: Blood glucose was measured weekly. Overnight fasting glycemia was measured by One Touch ULTRA Glucometer (LifeScan Johnson and Johnson, USA) for the tail blood test.
End of the experiment: After mice being administrated for 2 weeks (14 days), the experiment was terminated.

The subject of experiment [3] is KK^Ay mice. The experiment can be described thus: Hepatic and muscle glycogen in KK^Ay mice (Example 3). It is filed as in vivo. Particulars: 2.0 mg/kg Sc.
Source text: as §1
The body weight, food and water intake of each mouse was measured and recorded weekly throughout the course of the experiment. At the end of the experiment, collected the blood and separated serum, fasting blood glucose, insulin levels and insulin sensitivity index (ISI) were measured or calculated in each group. Liver, skeletal muscles of mice in each group were taken and weighed for detecting glycogen levels of the hepatic and muscles after mice being killed.
as §2, §3

The subject of experiment [4] is T2DM rats. Briefly: Fasting glycemia in T2DM model rats (high-fat emulsion + STZ, Example 5). Type of experiment: in vivo, SD rats.
Source text: 50 male SD rats (180-200 g, License NO. SCXK (BJ) 2011-0004, Beijing SPF Experimental Animal Technology Co. Ltd.) were adaptively bred for 1 week, and then used in the pharmacological experiment.
Animals were housed individually in wood-chip-bedded plastic cages and fed a standard laboratory chow. All the animals had ad libitum access to food and water.
as §4, §5
All rats except the control group were administrated intragastrically with the high-fat emulsion (10 ml/kg) and weighed the body weight weekly. After weeks of administration, rats were intraperitoneally injected with streptozotocin (STZ, dissolved in citric acid-citrate sodium solution, pH 4.2, freshly prepared and used instantly, and store away from light) (30mg/kg). 4 days later, blood glucose level in rats was measured by tail blood test. Diabetes was defined as fasting blood glucose level>11.1 mmol/Lin in this experiment.
The blood glucose level was measured before and after administration of the treatment compounds for 2 weeks, respectively. The animals were fasted overnight and tail blood samples were taken. Fasting glycemia was measured by using One Touch ULTRA Glucometer or kits.

Regarding `CC(=O)OC1C(OC(=O)/C=C/c2ccc(C)cc2)C(C)OC(OC(=O)[C@]23CCC(C)(C)C[C@H]2C2C=C[C@@H]4[C@@]5(C)CC[C@H](OC6OC(C(=O)O)C(O)C(OC7OCC(O)C(O)C7O)C6OC6OC(CO)C(O)C(O)C6O)[C@@](C)(C=O)[C@@H]5CC[C@@]4(C)[C@]2(C)C[C@H]3O)C1OC1OC(C)C(O)C(O)C1O` (stereo partly shown) [Compound (1), sinocrassuloside VI], the overall anti-diabetic effects entry in the experiment with KK^Ay mice [1] (KK^Ay mice, 2.0 mg/kg Sc, 2 weeks, comparison among compounds) is “best anti-diabetic effects”. The “duration of hypoglycemic effect compared with metformin” value in the experiment on KK^Ay mice [1] (KK^Ay mice, after stopping medication) is “lasts longer than that of metformin”. The “descending rates of blood glucose” value in the experiment with KK^Ay mice [1] (T2DM mice, 2 mg/kg, two weeks after subcutaneous injection) was found to be 70%. Further, in the experiment with T2DM rats [2], the “effect on glycogen levels and GSP levels compared with glucobay” value was “better effect on up-regulating of glycogen levels and down-regulating of GSP levels; also recorded: superior to that of glucobay; also recorded: stronger than glucobay”. Further, the glycemia level result with normal ICR mice (after 1 week) is on record as “no significant difference was found except the Compound (1) group (p<0.05, vs. control group)”; in the experiment with normal ICR mice (after 2 weeks), “decreased much obviously”; in the experiment on T2DM rats [4] (4.0 mg/kg Sc, after 2 weeks, vs model group), “significantly decreased”. Also, in the experiment on KK^Ay mice [3] (2 weeks, comparison among compounds and with metformin, 2 mg/kg), the “enhancement of glycogen storage” value is “strongest activity of the function; also recorded: almost comparable to metformin”. Besides, the muscle glycogen level entry in the experiment with KK^Ay mice [3] (after 2 weeks, vs model group) is given as “stronger efficacy in raising levels muscle glycogen”. In addition, the “anti-hyperglycemia efficacy compared with glucobay” value in the experiment with T2DM rats [4] (4.0 mg/kg Sc vs glucobay 20 mg/kg lg, 2 weeks) is listed as “much stronger than that of the glucobay”.
